Measurements: US20130039928A1, “COMPOSITIONS AND METHODS FOR REVERSING CORTICOSTEROID RESISTANCE OR TREATING RESPIRATORY INFECTIONS” (priority 2010, published 2013)

Test system: Pseudomonas aeruginosa
Test: Bacterial clearance by THP-1 macrophages
Assay type: cell-based
Conditions: after exposure with Poly(I) (10 μg/ml)
Text: The above data collectively indicate that the activation of Nrf2 improves bacterial phagocytosis and clearance by COPD macrophages. The dependence of Nrf2 on bacterial phagocytosis was investigated. […] This observations confirmed Nrf2-dependent modulation of bacterial phagocytosis and clearance. To determine the mechanisms by which Nrf2 regulates phagocytosis, microarray analysis was employed. […] To address whether sulforaphane-induced expression of MARCO correlates with bacterial clearance, differentiated human THP-1 macrophages were used. Bacterial clearance by sulforaphane treated THP-1 macrophages after exposure with polyinosinic acid (Poly(I)) was analyzed. Poly(I) is a non-selective class A scavenger receptor blocker that inhibits MARCO mediated bacterial uptake and clearance (G. M. DeLoid, T. H. Sulahian, A. Imrich, L. Kobzik, PLoS One 4, e6209 (2009)). […] Next, phagocytosis of FITC-Pseudomonas aeruginosa was examined in THP-1 macrophages with knockdown of MARCO using lentivirus-encoded shRNA (MARCO shRNA).
BMDM were isolated by culturing bone marrow cells in the presence of 10 ng/ml granulocyte-macrophage colony-stimulating factor (PeproTech) for 7 days. Murine macrophages were cultured in RPMI 1640 medium supplemented with 10% FBS and 1% penicillin-streptomycin. […]

polyinosinic acid [Poly(I)]
bacterial clearance by sulforaphane treated THP-1 macrophages: significantly impaired sulforaphane ability to improve bacterial clearance
